Here are results for 7 compounds from article PMC7251097, “Aspartate/asparagine-β-hydroxylase: a high-throughput mass spectrometric assay for discovery of small molecule inhibitors” (Scientific Reports, 2020).

“And” between values parts separate entries of the source, which are not always exact repeats. Equal entries are not always repeated. Where two headings read alike, the source gives them in different places. A value given as a limit tells only on which side of the number the result lay.

Assay [1] concerns the target T1, His6-AspH315–758 (human aspartate/asparagine-β-hydroxylase, AspH) (Homo sapiens, UniProt Q12797).
T1 construct: N-Terminally His6-tagged human AspH315–758 (His6-AspH315–758) was produced in E. coli BL21 (DE3) cells; made in house; host or cells: E. coli BL21 (DE3), pET-28a(+) vector
T1 sequence (Q12797 315-758): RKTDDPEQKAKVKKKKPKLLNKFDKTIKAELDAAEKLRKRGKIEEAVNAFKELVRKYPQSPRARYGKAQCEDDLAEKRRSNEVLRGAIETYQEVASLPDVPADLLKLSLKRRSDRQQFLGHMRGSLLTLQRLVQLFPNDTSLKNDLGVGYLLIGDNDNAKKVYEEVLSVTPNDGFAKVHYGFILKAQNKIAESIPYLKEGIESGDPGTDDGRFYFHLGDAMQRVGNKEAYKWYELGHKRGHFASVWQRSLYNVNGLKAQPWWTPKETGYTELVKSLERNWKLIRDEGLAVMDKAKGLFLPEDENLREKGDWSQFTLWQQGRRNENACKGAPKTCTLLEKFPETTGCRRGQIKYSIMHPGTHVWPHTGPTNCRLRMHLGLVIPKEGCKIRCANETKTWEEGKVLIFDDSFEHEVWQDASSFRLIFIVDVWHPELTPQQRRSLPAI
In words: SPE-MS AspH inhibition assay (LOPAC screen at fixed 20 μM and IC50 dose-response), hydroxylation of cyclic peptide hFX-CP101–119. Type of assay: biochemical.

The test system of the next assay is PHD2. As to conditions: read-out: IC50 metal ion, PHD2, cited from earlier work.
In the next assay the target is FIH. To be noted: read-out: IC50 metal ion, FIH [μM] (Ki values are shown), cited from earlier work.
The test system of another assay is KDM4A. As to conditions: read-out: IC50 metal ion, KDM4A, cited from earlier work.
Another assay has as its system KDM4E. To be noted: read-out: IC50 metal ion, KDM4E, cited from earlier work.
Another assay has as its system TauD. To be noted: read-out: IC50 metal ion, TauD; cited from earlier work.
The next assay deals with T2, His6-AspH315-758 (AspH) (Homo sapiens, UniProt Q12797).
T2 construct: freshly thawed His6-AspH315-758 was added; made in house; host or cells: E. coli BL21 (DE3), pET-28a(+) vector
T2 sequence (Q12797 315-758): T1 sequence (Q12797 315-758)
In words: Differential scanning fluorimetry (DSF) assay, shift of AspH melting temperature. Type of assay: binding. As to conditions: 20 μM inhibitor, 2 μM AspH, 50 μM NiCl2, with respect to DMSO controls, n = 2, mean ± SD; for ΔTm at 20 µM: read-out: Tm-shift (ΔTm) of AspH melting temperature [°C].

The mark [2] stands for this setting: 50 nM AspH, 2.0 μM Fe(II), Zn(OAc)2, NiSO4, CoCl2, MnCl2, CaCl2 as metal sources, n = 2, mean ± SD, read-out: IC50 metal ion, AspH.
Where [3] appears, read: 5 μM Fe(II), Ki values are shown.
Where [4] appears, read: 50 nM His6-AspH315–758, 1.0 μM hFX-CP101–119, 3 μM 2OG, 2 μM Fe(II), 50 mM HEPES pH 7.5, 20 °C, mean ± SD, n = 2 (2,4-PDCA n = 10), read-out: IC50.

Consider `CC(=O)[O-].CC(=O)[O-].[Zn+2]` [Zn(II), Zn(OAc)2], for which the IC50 in assay [1] (setting [2]) was ~0.05 µM and 0.05 µM; in the assay on PHD2 (2 μM PHD2 and 20 μM Fe(II)), 9.3 µM; in the assay with KDM4A (2 μM KDM4 and 10 μM Fe(II)) it was 7.8 µM; in the assay on KDM4E (2 μM KDM4 and 10 μM Fe(II)), 13 µM. Further, the Ki at FIH (setting [3]) is 0.5 ± 0.1 µM.
On to `[Cl][Mn][Cl]` [Mn(II), MnCl2], for which the IC50 is 5.06 ± 1.02 µM in assay [1] (setting [2]); 21 µM with PHD2 (2 μM PHD2 and 20 μM Fe(II)); 101 µM in the assay with KDM4A (2 μM KDM4 and 10 μM Fe(II)); 224 µM with KDM4E (2 μM KDM4 and 10 μM Fe(II)). In addition, in assay [1] (ratio of IC50 values against AspH, Table 2), the “Reduction of AspH inhibition compared to Zn(II)” value was “approximately 100 fold”. The Ki at FIH (setting [3]) was 10 ± 1 µM.
With CoCl2 [Co(II)], the IC50 is 0.39 ± 0.13 µM in assay [1] (read-out: IC50 metal ion, AspH); 48.3 µM in the assay with PHD2; 1 to 3.5 µM with TauD; 5.7 µM in the assay with KDM4A; 9.4 µM in the assay with KDM4E. For the same compound, on FIH, the Ki was 1 ± 0.4 µM.
In the case of `Cc1ccc(-n2sc3ccccc3c2=O)cc1` [PBIT, 2-(4-methylphenyl)-1,2-benzisothiazol-3(2 H)-one, reference compound], in assay [1] (setting [4]), the IC50 was 0.14 ± 0.02 µM. Besides, at His6-AspH315-758 (AspH), the “Tm-shift (ΔTm) of AspH melting temperature [°C]” value was -15.2 ± 1.4 °C and ~ −15.2 °C.
As to `O=C(O)CNC(=O)C(=O)O` [NOG, N-oxalylglycine, reference compound], the IC50 in assay [1] (setting [4]) is 1.09 ± 0.29 µM. The ΔTm at 20 µM at His6-AspH315-758 (AspH) amounted to 2.8 ± 0.3 °C.
Consider `CCOc1nc2cccc(C(=O)OC(C)OC(=O)OC3CCCCC3)c2n1Cc1ccc(-c2ccccc2-c2nnn[nH]2)cc1` (stereo not shown) [Candesartan cilexetil, reference compound], for which the inhibition at 20 µM in assay [1] (AspH activity, fixed compound concentration 20 μM, initial LOPAC screen, 0.5%v/v DMSO, read-out: Inhibition at 20 µM [%]) turned out to be 100%. Moreover, in assay [1] (LOPAC Plate 4, compound at 20 uM, substrate conversion), the “% conversion” value came out at 2.30%. For the same compound, at His6-AspH315-758 (AspH), the “Tm-shift (ΔTm) of AspH melting temperature [°C]” value was less than 0.3 °C and the ΔTm at 20 µM amounted to 0.2 ± 0.1 °C.
For `O=S(=O)([O-])[O-].[Ni+2]` [Ni(II), NiSO4], the IC50 in assay [1] (read-out: IC50 metal ion, AspH) was 0.17 ± 0.08 µM; in the assay with PHD2, 185 µM; in the assay with TauD it was 0.6 to 1 µM; in the assay on KDM4A, 9.4 µM; in the assay on KDM4E, 15.6 µM. Besides, the Ki at FIH is 4 ± 1 µM.

As usually defined, the IC50 is the concentration that inhibits the measured activity by half. Broadly, the Ki is the equilibrium dissociation constant of an inhibitor or competing ligand from its target. Usually inhibition stands for the share of the control response that was lost under treatment.
